Reference: patent US11986489B2, “Method of treating a disease using a glycolytic dependent compound” (Ethicon, Inc., priority 2015, dated 2024)
Where a name gives a salt, the structure may show the parent alone. Read-outs that look alike come from different tables or passages of the source.

Legend:
[1] = in vivo; cited from earlier work
[2] = human, in vivo
From the text: Clinically, a half-life of a given compound is the amount of time required for the compound to fall e.g. in the circulation to half its initial administered dose i.e. how long it takes for the body to remove half of the administered dose. Typically, compounds are active for a multiple of their half-life, for example, five times the half-life can be used to describe the time period for a therapy's treatment. In the case of many therapies, this translates into days where the drug is having an effect on targeted tissues. All clinically used and approved drugs will have well described time ranges and amounts for calculating dose and therapy plans. In one embodiment, the performance of the compound in addressing the underlying pathology e.g. malignancy is adjusted in view of the presence of ORC, and/or OC that can localize the therapy at the target site during the limited time the compound is in the body and before it is being processed.
In certain embodiments a “therapeutically effective dose” refers to the median effective dose ED50, for a particular know drug. […] Mean: 1-3 hours. Typically, 5 times the elimination half-life will give the time at which point the drug has been completely eliminated from the body. For Doxorubicin this would be 5-15 hours.

[3] = WST-1 viability of NHDF cells treated with Dox with or without ORC; format: cell-based, Human; conditions: human, NHDF cells (normal human dermal fibroblasts), NHDF cells, 16-18 hours, WST-1; for cytotoxicity at 5 μM: Dox 5 μM; for cytotoxicity at 25 μM: Dox 25 μM; for cytotoxicity at 50 μM: Dox 50 μM
Procedure: (§1) NU-KNIT® (ORC) patch: NU-KNIT® was cut with an 8 mm punch to form 8 mm circles of Nuknit. These circles were then cut into 4 quarters using sterile scissors (each quarter has a weight of 2.2-2.7 mg, Average 2.44 mg, n=10).
(§2) Day 1: Two 24-well plates were seeded with 15,000 NHDF cells/well using a 15,000 cells/ml suspension according to the plate layout below (representing about 20%-30% confluency of cells).
(§3) The plates were incubated overnight, for 16-18 hours, in a water jacketed 37° C. incubator with 5% CO2.
(§4) The cells at this stage were about 40%-50% confluent.
(§5) Immediately, a NuKnit® ¼ punch was added to the wells according to the plate layout.
(§6) Day 3: The untreated cells at this stage were about 60%-70% confluent. The plate's medium was decanted and replaced with 0.5 ml of Growth medium. 50 μl of WST-1 were added to each well. The plates were then incubated for an additional 4 hours.
(§7) The plates were then read with an ELISA reader at 450 nm and 650 nm Optical Density (OD). Wells containing medium with no cells were used as blank.
(§8) The results obtained by ELISA reader at 650 nm were subtracted from the results obtained at 450 nm per each well separately=sample OD.
(§9) The relative viability of the rest of the wells was calculated according to the following calculation: sample OD/untreated OD×100. The results were depicted in FIG. 2.
(§10) The following experiment was set in order to evaluate the effect of ORC on Doxorubicin activity on Normal Human Dermal Fibroblast (NHDF) cells. Doxorubicin activity will be expressed in relative cell viability compared to untreated cells. […] The final viability of the cells was evaluated with WST-1 staining. WST-1 is a Tetrazolium salts that is only cleaved to Formazan in metabolically active intact cells.

[4] = tested on: Normal Human Dermal Fibroblast (NHDF) cells; assay: as above; format: cell-based; conditions: for Potency increase of Dox in the presence of ORC: with ORC divided by without ORC
Procedure: as §1, §2, §3, §4, §5, §6, §7, §8, §9, §10

[5] = with ORC (¼ Nuknit of 8 mm), read-out: With ORC relative reduction of viability (%)
[6] = without ORC, read-out: Without ORC relative reduction of viability (%)

In the case of `Cc1ccc(Nc2nccc(N(C)c3ccc4c(C)n(C)nc4c3)n2)cc1S(N)(=O)=O` [Pazopanib], the half-life [1] is given as “about 31 hours”.

In the case of `CNC(=O)c1cc(Oc2ccc(NC(=O)Nc3ccc(Cl)c(C(F)(F)F)c3)cc2)ccn1` [Sorafenib], the half-life [1] is listed as 20 to 27 h.

In the case of `CO[C@H]1C[C@@H]2CC[C@@H](C)[C@@](O)(O2)C(=O)C(=O)N2CCCC[C@H]2C(=O)O[C@H]([C@H](C)C[C@@H]2CC[C@@H](OC(=O)C(C)(CO)CO)[C@H](OC)C2)CC(=O)[C@H](C)/C=C(\C)[C@@H](O)[C@@H](OC)C(=O)[C@H](C)C[C@H](C)/C=C/C=C/C=C/1C` [Temsirolimus], the half-life [1] is listed as “about 17.3 hours”.

In the case of `CO[C@H]1C[C@@H]2CC[C@@H](C)[C@@](O)(O2)C(=O)C(=O)N2CCCC[C@H]2C(=O)O[C@H]([C@H](C)C[C@@H]2CC[C@@H](OCCO)[C@H](OC)C2)CC(=O)[C@H](C)/C=C(\C)[C@@H](O)[C@@H](OC)C(=O)[C@H](C)C[C@H](C)/C=C/C=C/C=C/1C` [Everolimus], the half-life [1] is listed as “about 30 hours”.

In the case of `COc1cccc2c1C(=O)c1c(O)c3c(c(O)c1C2=O)C[C@@](O)(C(=O)CO)C[C@@H]3O[C@H]1C[C@H](N)[C@H](O)[C@H](C)O1` [Dox, Doxorubicin hydrochloride], the “time at which the drug has been completely eliminated from the body” value [2] was 5 to 15 h, the cytotoxicity at 5 μM [3, 5] was about 55% and the cytotoxicity at 5 μM [3, 6] was about 30%. For the same molecule, the cytotoxicity at 25 μM [3, 5] was about 74%, the cytotoxicity at 25 μM [3, 6] was about 40% and the cytotoxicity at 50 μM [3, 5] was 80%. For the same molecule, the cytotoxicity at 50 μM [3, 6] was 65%, the “Potency increase of Dox in the presence of ORC” value (from here on “Potency increase of Dox”) ([4]; Dox 5 μM) was 1.89 and the “Potency increase of Dox” value ([4]; Dox 25 μM) was 1.83. For the same molecule, the “Potency increase of Dox” value ([4]; Dox 50 μM) was 1.24, the “Dox concentration at which the viability reduction is already evident” value ([4]; NHDF cells, in the absence of ORC) was 5.0 µM and the “Effect of Dox on the viability of NHDF cells” value ([4]; in the absence of ORC) was “reduces the viability of NHDF cells, in the absence of ORC in a dose dependent manner”. The “biological half-life, mean” value [1] was 1-3 hours and the “biological half-life, triphasic, third phase” value [1] was 30 hours.

In the case of `CCN(CC)CCNC(=O)c1c(C)[nH]c(/C=C2\C(=O)Nc3ccc(F)cc32)c1C` [Sunitinib], the half-life [1] is listed as 41 to 86 h.
